Experimental data published in patent publication US11034717B2, “Farnesoid X receptor modulators” (Intercept Pharmaceuticals, Inc., priority 2015, dated 2021).
Like-named read-outs stand apart in the source and are kept apart here.

Assays:
[1] = molecular target: T1, hTGR5 (Homo sapiens (Human), UniProt Q8TDU6); experiment: HTR-FRET intracellular cAMP assay in NCI-H716 cells; type: cell-based; details: Table 1; Ref LCA
[2] = 1-octanol-water partition coefficient of ionized species; type: physicochemical
Procedure: (§1) Physiochemical properties of a compound of the invention such as water solubility, critical micellar concentration, surface tension, and LogPA were determined using methods known in the art.

[3] = Critical micellar concentration; type: physicochemical; details: determined in […] NaCl water solution
Procedure: as §1

[4] = tested on: dTGR5; experiment: Cross species TGR5 activity, CHO cells, dog; type: cell-based
[5] = tested on: nuclear receptors LXRP, PXR, CAR, PPARα, PPARγ, RAR, RARα, VDR, TR, PR, RXR, GR, and ER; experiment: Nuclear receptor selectivity profile (AlphaScreen); type: biochemical; details: for Activation of nuclear receptor panel, agonist mode: dose response to 200 μM; for Activity on nuclear receptor panel, antagonist mode: fixed concentration at 10 μM
Procedure: Using the AlphaScreen assay, the selectivity of a compound of the invention against the following nuclear receptors involved in the metabolic pathways can be evaluated: LXRP, PXR, CAR, PPARα, PPARα, PPARγ, RAR, RARα, VDR, TR, PR, RXR, GR, and ER.
Compounds L1, 3, 5, 6 and 7 were tested against the panel of available nuclear receptor in both agonist and antagonist mode.

[6] = molecular target: hERG potassium channel (Homo sapiens (Human), UniProt Q12809); experiment: biochemical; details: for hERG potassium channel inhibition (in words): Table 7 footnote
Source text: The assay is based on the assumption that the hERG potassium channel activity contributes to the resting membrane potential in permanently transfected cells, and thus a block of hERG channels should result in a depolarization of the cell membrane. The assay is designed to identify potential hERG channel blockers by producing data that accurately correlates with patch-clamp electrophysiology studies.
Membrane preparations from Chinese hamster ovary cells stably transfected with hERG potassium channel are used to evaluate the potential inhibitory effect of a compound of the invention on this channel using the Predictor™ fluorescence polarization assay. Reduction of membrane polarization as a result of inhibition of the hERG potassium channel is directly correlated with a reduction of the fluorescence polarization (FP).
An assay window more than 100 mP (millipolarization) is considered good. The non-linear regression curves are obtained by GraphPad Prism (GraphPad Software Inc.) analysis, to calculate the IC50 values.

[7] = molecular target: rTGR5 (Rattus norvegicus (Rat), UniProt Q80T02); experiment: Cross species TGR5 activity, CHO cells, rat; type: cell-based
[8] = tested on: FXR target genes: BSEP, SHP, OSTβ and CYP7A1; experiment: FXR target gene panel, quantitative RT-PCR in HepG2 cells; type: cell-based; details: stimulation for 18 hours
Procedure: To evaluate the capacity of a compound of the invention to modulate FXR target genes, quantitative RT-PCR assays are performed. HepG2 cells are selected as a relevant cell line to determine whether a compound of the invention can regulate the endogenous FXR genetic network. The ability of a compound of the invention to induce FXR target genes is assessed by isolating total RNA from cells treated overnight with 1 μM of compounds A, B, and a compound of the invention.
FXR regulates the expression of several target genes involved in BA homeostasis. Briefly, FXR plays a central role in several metabolic pathways, including i.e., lipid metabolism, bile-acids metabolism, and carbohydrate metabolism. Regarding gene expression profiling, the genes encoding proteins involved in lipid metabolism include, e.g., APOCII, APOE, APOAI, SREBP-1C, VLDL-R, PLTP, and LPL; the genes encoding proteins involved in bile-acids metabolism include, e.g., OSTα/β, BSEP, MRP2, SHP, CYP7A1, FGF19, SULT2A1, and UGT2B4; and the genes encoding proteins involved in carbohydrate metabolism include, e.g., PGCla, PEPCK, and GLUT2. FXR target genes: BSEP, SHP, OSTβ and CYP7A1 were evaluated following stimulation of Compounds 3, 5, 6, and 7 on HepG2 cells for 18 hours. Compound L1 was used as a control.

[9] = molecular target: T1, hTGR5; experiment: Cross species TGR5 activity, CHO cells, human; type: cell-based
[10] = tested on: HepG2 cells; experiment: In-vitro cytotoxicity, ATP content; type: cell-based; details: Table 5A
Source text: To evaluate in-vitro cytotoxicity of a compound of the invention, two different assay methods are employed. The assays evaluate cell viability by measuring ATP levels and cytotoxicity by measuring LDH release. […] It has been called the “molecular unit of currency” when it comes to intracellular energy transfer.
An additional method to determine the viability of cells is to detect the integrity of the membrane that defines the cellular compartmentalization. Measuring the leakage of components out of the cytoplasm, in damaged cell membranes, indicates loss of membrane integrity, and LDH release is the method used to determine common toxicity in cells. HepG2 cells are treated with a compound of the invention, and serial dilutions are performed. LCA dilutions are added to the plated cells as assay controls together with no-cell and untreated cells. The assay is performed in triplicate for each test compound concentration.

[11] = molecular target: CYP1A2 (Homo sapiens (Human), UniProt P05177); experiment: CYP450 inhibition, fluorescent substrate, recombinant baculosomes; type: in vitro ADME
Procedure: (§2) To evaluate the potential of a compound of the invention for drug-drug interactions, the six main CYP450 isoforms (CYP1A2, CYP2C9, CYP2C19, CYP2D6, CYP2E1, CYP3A4) are investigated (Obach, et al., J Pharmacol. Exp. Ther, 2006, 316, 336-348).
(§3) To determine interaction between a compound of the invention and cytochrome P450 enzymes, the compound of the invention is analyzed by its capacity to inhibit (or not) the production of a fluorescent signal, using recombinant CYP450 proteins (baculosomes; Invitrogen), substrates and inhibitors (Bidstrup, et al., Br J Clin. Pharmacol, 2003, 56, 305-14). As a positive control, a selective inhibitor for each CYP450 isoform is tested in the same plate.

[12] = molecular target: CYP2C19 (Homo sapiens (Human), UniProt P33261); experiment: as above; type: in vitro ADME
Procedure: as §2, §3

[13] = molecular target: CYP2C9 (Homo sapiens (Human), UniProt P11712); experiment: as above; type: in vitro ADME
Procedure: as §2, §3

[14] = molecular target: CYP2E1 (Homo sapiens (Human), UniProt P05181); experiment: as above; type: in vitro ADME
Procedure: as §2, §3

[15] = molecular target: CYP3A4 (Homo sapiens (Human), UniProt P08684); experiment: as above; type: in vitro ADME
Procedure: as §2, §3

[16] = molecular target: CYP2D6 (Homo sapiens (Human), UniProt P10635); experiment: as above; type: in vitro ADME
Procedure: as §2, §3

[17] = molecular target: mTGR5 (Mus musculus (Mouse), UniProt Q80SS6); experiment: Cross species TGR5 activity, CHO cells, mouse; type: cell-based
[18] = read-out: CYP3A4 (Green substrate) IC50, Green substrate

T1 sequence (Q8TDU6 whole entry): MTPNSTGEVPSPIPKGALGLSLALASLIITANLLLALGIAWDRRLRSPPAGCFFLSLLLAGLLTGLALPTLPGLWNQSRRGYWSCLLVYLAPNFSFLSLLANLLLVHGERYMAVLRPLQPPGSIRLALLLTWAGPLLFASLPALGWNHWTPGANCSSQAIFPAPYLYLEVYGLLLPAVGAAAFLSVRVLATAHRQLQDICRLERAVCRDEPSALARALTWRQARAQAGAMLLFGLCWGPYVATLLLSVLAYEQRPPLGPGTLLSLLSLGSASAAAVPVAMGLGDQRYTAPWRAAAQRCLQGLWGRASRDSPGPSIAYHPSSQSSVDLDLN
hERG potassium channel, sequence (Q12809 whole entry): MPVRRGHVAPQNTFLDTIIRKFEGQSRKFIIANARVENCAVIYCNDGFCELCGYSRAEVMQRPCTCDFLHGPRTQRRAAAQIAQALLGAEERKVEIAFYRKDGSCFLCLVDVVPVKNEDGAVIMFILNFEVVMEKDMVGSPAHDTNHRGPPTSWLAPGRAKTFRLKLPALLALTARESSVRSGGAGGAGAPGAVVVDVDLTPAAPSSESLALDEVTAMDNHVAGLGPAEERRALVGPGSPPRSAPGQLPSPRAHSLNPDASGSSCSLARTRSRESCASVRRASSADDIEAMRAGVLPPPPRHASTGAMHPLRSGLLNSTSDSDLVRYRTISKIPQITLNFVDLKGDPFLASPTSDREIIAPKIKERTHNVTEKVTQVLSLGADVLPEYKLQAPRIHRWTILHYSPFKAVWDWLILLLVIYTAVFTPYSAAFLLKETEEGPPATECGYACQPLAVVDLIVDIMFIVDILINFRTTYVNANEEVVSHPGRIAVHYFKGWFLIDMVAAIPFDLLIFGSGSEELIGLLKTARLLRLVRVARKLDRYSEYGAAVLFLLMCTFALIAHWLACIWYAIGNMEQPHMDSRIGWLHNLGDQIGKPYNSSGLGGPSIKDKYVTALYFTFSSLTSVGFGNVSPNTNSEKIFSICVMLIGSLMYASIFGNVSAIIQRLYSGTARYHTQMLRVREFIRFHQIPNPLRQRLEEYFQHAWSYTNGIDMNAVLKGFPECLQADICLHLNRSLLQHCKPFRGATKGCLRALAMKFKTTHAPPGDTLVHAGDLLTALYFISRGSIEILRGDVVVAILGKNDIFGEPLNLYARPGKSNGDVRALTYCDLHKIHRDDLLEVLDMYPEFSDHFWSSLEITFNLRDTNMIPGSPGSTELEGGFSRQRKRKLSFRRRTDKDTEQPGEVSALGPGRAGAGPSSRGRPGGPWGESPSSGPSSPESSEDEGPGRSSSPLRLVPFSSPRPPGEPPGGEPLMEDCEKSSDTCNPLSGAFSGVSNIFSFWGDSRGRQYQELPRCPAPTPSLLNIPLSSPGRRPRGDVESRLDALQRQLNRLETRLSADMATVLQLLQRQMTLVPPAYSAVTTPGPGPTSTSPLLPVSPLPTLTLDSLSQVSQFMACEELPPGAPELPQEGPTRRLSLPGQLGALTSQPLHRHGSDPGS
CYP3A4, sequence (P08684 whole entry): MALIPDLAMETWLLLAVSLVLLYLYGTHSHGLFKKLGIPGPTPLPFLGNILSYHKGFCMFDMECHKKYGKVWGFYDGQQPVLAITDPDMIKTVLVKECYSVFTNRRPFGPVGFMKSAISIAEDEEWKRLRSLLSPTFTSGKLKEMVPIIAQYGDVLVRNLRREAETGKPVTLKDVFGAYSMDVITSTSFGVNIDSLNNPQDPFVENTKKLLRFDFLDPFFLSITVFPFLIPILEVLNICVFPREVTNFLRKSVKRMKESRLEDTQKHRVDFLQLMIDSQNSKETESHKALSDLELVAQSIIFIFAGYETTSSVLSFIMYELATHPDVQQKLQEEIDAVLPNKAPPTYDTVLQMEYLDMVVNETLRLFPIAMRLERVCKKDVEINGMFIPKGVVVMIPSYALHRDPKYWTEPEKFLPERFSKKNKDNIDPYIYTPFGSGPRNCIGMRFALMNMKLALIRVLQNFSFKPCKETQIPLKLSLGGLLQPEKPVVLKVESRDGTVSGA
mTGR5, sequence (Q80SS6 whole entry): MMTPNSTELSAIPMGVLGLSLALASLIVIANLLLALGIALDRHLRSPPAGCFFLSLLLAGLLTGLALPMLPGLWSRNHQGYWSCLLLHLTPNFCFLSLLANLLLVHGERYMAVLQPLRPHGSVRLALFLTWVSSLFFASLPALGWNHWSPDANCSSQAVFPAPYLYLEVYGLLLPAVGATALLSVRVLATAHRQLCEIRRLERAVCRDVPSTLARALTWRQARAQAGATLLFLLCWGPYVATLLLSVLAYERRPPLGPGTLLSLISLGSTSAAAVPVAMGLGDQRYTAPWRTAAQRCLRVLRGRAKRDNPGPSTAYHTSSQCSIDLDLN
rTGR5, sequence (Q80T02 whole entry): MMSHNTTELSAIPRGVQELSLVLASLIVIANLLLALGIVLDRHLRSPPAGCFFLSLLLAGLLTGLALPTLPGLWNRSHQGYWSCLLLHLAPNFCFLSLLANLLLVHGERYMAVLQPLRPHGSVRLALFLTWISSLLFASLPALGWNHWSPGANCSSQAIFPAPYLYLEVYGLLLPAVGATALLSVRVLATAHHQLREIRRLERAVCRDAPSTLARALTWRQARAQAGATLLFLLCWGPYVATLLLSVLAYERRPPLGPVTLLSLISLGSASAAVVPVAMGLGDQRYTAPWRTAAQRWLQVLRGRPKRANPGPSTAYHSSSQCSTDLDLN
CYP2E1, sequence (P05181 whole entry): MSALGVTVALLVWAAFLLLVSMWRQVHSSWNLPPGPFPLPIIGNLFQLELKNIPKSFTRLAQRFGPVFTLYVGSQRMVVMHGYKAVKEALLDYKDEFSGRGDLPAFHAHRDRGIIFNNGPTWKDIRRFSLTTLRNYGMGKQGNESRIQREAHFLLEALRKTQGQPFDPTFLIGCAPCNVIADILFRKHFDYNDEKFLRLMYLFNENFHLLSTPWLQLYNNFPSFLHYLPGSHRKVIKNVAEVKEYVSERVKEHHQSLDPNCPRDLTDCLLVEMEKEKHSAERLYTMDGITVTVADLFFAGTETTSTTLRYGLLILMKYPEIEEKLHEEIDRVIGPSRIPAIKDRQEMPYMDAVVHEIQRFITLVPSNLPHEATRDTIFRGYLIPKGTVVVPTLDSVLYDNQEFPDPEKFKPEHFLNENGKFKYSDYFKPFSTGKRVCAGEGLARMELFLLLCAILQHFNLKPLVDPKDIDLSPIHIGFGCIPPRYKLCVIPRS
CYP2C9, sequence (P11712 whole entry): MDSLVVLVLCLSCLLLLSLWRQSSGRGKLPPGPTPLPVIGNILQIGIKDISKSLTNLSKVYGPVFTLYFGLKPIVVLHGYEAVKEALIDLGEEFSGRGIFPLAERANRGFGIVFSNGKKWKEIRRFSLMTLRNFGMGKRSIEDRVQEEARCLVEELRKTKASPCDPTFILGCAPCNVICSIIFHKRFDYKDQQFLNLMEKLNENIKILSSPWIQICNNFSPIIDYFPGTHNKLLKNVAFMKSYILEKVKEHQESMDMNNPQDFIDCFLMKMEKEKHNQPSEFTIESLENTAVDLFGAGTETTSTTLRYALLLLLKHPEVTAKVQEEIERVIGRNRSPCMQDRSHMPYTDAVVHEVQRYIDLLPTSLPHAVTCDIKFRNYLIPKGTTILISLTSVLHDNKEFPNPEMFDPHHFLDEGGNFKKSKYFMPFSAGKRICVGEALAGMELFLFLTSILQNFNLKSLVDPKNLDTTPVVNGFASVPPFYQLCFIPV
CYP2D6, sequence (P10635 whole entry): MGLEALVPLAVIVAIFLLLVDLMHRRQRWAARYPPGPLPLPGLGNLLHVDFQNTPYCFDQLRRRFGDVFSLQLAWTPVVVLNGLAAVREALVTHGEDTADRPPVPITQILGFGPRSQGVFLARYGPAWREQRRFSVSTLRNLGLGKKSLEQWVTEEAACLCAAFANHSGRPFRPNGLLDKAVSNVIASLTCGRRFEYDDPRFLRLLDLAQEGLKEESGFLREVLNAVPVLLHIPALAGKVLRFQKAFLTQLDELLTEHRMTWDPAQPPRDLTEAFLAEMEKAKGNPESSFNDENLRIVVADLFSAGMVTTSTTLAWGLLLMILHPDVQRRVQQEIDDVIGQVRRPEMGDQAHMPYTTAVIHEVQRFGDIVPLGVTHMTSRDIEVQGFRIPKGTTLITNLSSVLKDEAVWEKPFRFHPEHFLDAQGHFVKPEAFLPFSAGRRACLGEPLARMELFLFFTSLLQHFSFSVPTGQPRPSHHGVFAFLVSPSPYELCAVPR
CYP2C19, sequence (P33261 whole entry): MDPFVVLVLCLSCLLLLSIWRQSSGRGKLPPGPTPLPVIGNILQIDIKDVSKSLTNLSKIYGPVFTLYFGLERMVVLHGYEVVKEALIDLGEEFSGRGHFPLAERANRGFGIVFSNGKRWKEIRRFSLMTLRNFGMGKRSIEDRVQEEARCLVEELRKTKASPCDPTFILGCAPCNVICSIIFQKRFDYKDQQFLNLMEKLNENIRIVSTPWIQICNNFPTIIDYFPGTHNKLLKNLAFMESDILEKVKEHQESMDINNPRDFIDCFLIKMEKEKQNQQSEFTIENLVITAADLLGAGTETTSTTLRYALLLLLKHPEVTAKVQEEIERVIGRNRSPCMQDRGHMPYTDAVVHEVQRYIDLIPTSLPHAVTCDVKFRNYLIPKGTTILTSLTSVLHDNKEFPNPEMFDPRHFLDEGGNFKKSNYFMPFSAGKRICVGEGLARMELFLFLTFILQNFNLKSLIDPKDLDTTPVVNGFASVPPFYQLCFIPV

6α-ethyl-3α,7α,23-trihydroxy-24-nor-5β-cholan-23-sulphate sodium salt [Compound B, reference compound]
EC50 [1]: 0.63 µM

CC[C@H]1[C@@H](O)C2C3CCC(C(C)CC(C)C(=O)O)[C@@]3(C)[C@@H](O)CC2[C@@]2(C)CC[C@@H](O)C[C@@H]12 (stereo in doubt) [Compound C, 6α-ethyl-23(S)-methyl-3α,7α,12α trihydroxy-5β-cholan-24-oic acid, reference compound]
LogPA−: 1-octanol-water partition coefficient as ionized species [2]: 1.4 | CMC: Critical Micellar Concentration [3]: 2 mM

CC[C@H]1[C@@H](O)C2C3CC[C@H]([C@H](C)CC(=O)O)[C@@]3(C)C[C@H](O)C2[C@@]2(C)CC[C@@H](O)C[C@@H]12 (stereo partly drawn) [Compound 1, 3α,7α,11β-trihydroxy-6α-ethyl-24-nor-5β-cholan-23-oic acid]
EC50 [1]: > 100 µM

CC[C@H]1[C@@H](O)C2C3CC[C@H]([C@H](C)CCO)[C@@]3(C)C[C@H](O)C2[C@@]2(C)CC[C@@H](O)C[C@@H]12 (stereo partly drawn) [Compound 2, 3α,7α,11β-trihydroxy-6α-ethyl-24-nor-5β-cholan-23-ol]
EC50 [1]: 93 µM

CC[C@H]1[C@@H](O)C2C3CC[C@H]([C@H](C)CCOS(=O)(=O)[O-])[C@@]3(C)C[C@H](O)C2[C@@]2(C)CC[C@@H](O)C[C@@H]12.[Na+] (stereo partly drawn) [Compound 3, 3α,7α,11β,23-tetrahydroxy-6α-ethyl-24-nor-5β-cholan-23-O-sulphate sodium salt]
dTGR5 CHO EC50 [4]: No activity | LogPA−: 1-octanol-water partition coefficient as ionized species [2]: 0.12 | Activation of nuclear receptor panel, agonist mode [5]: Neither compound activated any of the receptors | Activity on nuclear receptor panel, antagonist mode [5]: Neither compound activated any of the receptors | IC50 [6]: > 100 µM | hERG potassium channel inhibition (in words) [6]: Compounds L1, 3, 5, 6 and 7 did not inhibit hERG potassium channel. | rTGR5 CHO EC50 [7]: No activity | Modulation of FXR target genes BSEP, SHP, OSTβ and CYP7A1 [8]: significantly bind to FXR in hepatic cells modulating FXR target genes | EC50 [1]: 83 ± 7 µM | EC50 [9]: 5 ± 1 µM | ATP Content EC50 [10]: No toxicity | CMC: Critical Micellar Concentration [3]: 12.5 mM | IC50 [11]: > 10 µM | IC50 [12]: > 10 µM | IC50 [13]: > 10 µM | IC50 [14]: > 10 µM | IC50 [15]: > 10 µM | IC50 [15, 18]: > 10 µM | IC50 [16]: > 10 µM | EC50 [17]: 3 ± 0.5 µM

CC[C@H]1[C@@H](O)[C@@H]2[C@H]([C@@H](O)C[C@]3(C)[C@@H]([C@H](C)CCCO)CC[C@@H]23)[C@@]2(C)CC[C@@H](O)C[C@@H]12 [Compound 4, 3α,7α,11β-trihydroxy-6α-ethyl-5β-cholan-24-ol]
EC50 [1]: 13.7 ± 2.3 µM

CC[C@H]1[C@@H](O)C2C3CC[C@H]([C@H](C)CCCOS(=O)(=O)[O-])[C@@]3(C)C[C@H](O)C2[C@@]2(C)CC[C@@H](O)C[C@@H]12.[Na+] (stereo partly drawn) [Compound 5, 3α,7α,11β-Trihydroxy-6α-ethyl-5β-cholan-24-O-sulphate, sodium salt]
dTGR5 CHO EC50 [4]: No activity | LogPA−: 1-octanol-water partition coefficient as ionized species [2]: 0.61 | Activation of nuclear receptor panel, agonist mode [5]: Neither compound activated any of the receptors | Activity on nuclear receptor panel, antagonist mode [5]: Neither compound activated any of the receptors | IC50 [6]: > 100 µM | hERG potassium channel inhibition (in words) [6]: Compounds L1, 3, 5, 6 and 7 did not inhibit hERG potassium channel. | rTGR5 CHO EC50 [7]: No activity | Modulation of FXR target genes BSEP, SHP, OSTβ and CYP7A1 [8]: significantly bind to FXR in hepatic cells modulating FXR target genes | EC50 [1]: 78 ± 1 µM | EC50 [9]: 3 ± 1 µM | ATP Content EC50 [10]: No toxicity | CMC: Critical Micellar Concentration [3]: 8.5 mM | IC50 [11]: > 10 µM | IC50 [12]: > 10 µM | IC50 [13]: > 10 µM | IC50 [14]: > 10 µM | IC50 [15]: > 10 µM | IC50 [15, 18]: > 10 µM | IC50 [16]: > 10 µM | EC50 [17]: 4 ± 1 µM

CC[C@H]1[C@@H](O)[C@@H]2[C@H](CC[C@]3(C)[C@@H]([C@H](C)CCC(=O)O)CC[C@@H]23)[C@@]2(C)CC[C@@H](O)C[C@@H]12 [Compound A, 6α-ethyl-3α,7α-dihydroxy-5β-cholan-24-oic acid, reference compound]
LogPA−: 1-octanol-water partition coefficient as ionized species [2]: 2.5 | CMC: Critical Micellar Concentration [3]: 2.9 mM

CC[C@H]1[C@@H](O)C2C3CC[C@H]([C@H](C)C[C@H](C)C(=O)O)[C@@]3(C)CCC2[C@@]2(C)CC[C@@H](O)C[C@@H]12 (stereo partly drawn) [Compound D, 6α-ethyl-23(R)-methyl chenodeoxycholic acid]
LogPA−: 1-octanol-water partition coefficient as ionized species [2]: 2.9

CC[C@H]1[C@@H](O)C2C3C[C@H](O)[C@H]([C@H](C)CCC(=O)O)[C@@]3(C)CCC2[C@@]2(C)CC[C@@H](O)C[C@@H]12 (stereo partly drawn) [Compound E, reference compound]
LogPA−: 1-octanol-water partition coefficient as ionized species [2]: 1.6 | CMC: Critical Micellar Concentration [3]: 5.9 mM
